Assay results: patent US10889611B2, “Sialyltransferase inhibitors and uses thereof” (Academia Sinica, priority 2015, dated 2021)
Marks after values point to notes of the source that are not given here.

Columns and labels:
[1] = biological target: T1, α2,3(N)-sialyltransferase ST3GALIII (Rattus norvegicus, UniProt Q02734); assay: Sialyltransferase activity assay, ST3GALIII; assay type: biochemical; conditions: calculated based on the concentration, of ST inhibitor used toward α2,3-O-ST3GALI, listed as 3 (FCW34)
T1 construct: purchased Calbiochem
T1 sequence (Q02734 1-374): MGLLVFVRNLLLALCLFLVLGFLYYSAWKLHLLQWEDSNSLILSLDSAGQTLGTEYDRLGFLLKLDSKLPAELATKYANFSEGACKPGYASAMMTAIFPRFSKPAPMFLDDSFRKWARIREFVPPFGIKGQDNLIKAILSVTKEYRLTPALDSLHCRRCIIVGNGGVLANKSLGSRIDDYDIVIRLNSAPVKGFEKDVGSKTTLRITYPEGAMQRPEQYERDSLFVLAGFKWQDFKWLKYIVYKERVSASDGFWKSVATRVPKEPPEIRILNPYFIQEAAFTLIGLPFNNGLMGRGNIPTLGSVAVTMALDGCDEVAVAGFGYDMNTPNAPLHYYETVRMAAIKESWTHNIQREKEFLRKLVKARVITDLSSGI
Protocol: The enzymes analyzed in the present study included rat ST3Gal(I), rat ST3Gal(III), and human ST6Gal(I). Rat ST3Gal(I) and rat ST3Gal(Ill), were purchased from Calbiochem®, while human ST6Gal(I) was purchased from RnDSystems.com.
(§1) Sialyltransferase inhibition assay […] was performed as follows: Sialyltransferase activity was determined by measuring the level of the end product of sialylated saccharides with reverse-phase HPLC. The assay mixtures contained the following components: 200 mM MES buffer; 100 mM NaCl; 0.5 mM EDTA; 0.01% Triton X-100; 1.4 mU ST3GALI; 2.5 mM T-antigen; 1 mM CMP-Neu5Ac and different concentration of Sialyltransferase inhibitors to a total volume of 50 μl. The assay mixture was incubated at 37° C. for 15 mins and then quenched by heating up to 101′C for 10 mins. The sialylated product was resolved by reversed-phase HPLC. Kinetic data were obtained by fitting the initial rate data to the nonlinear regression equation.
as §1, with “mU ST6GALI; 25 μM Galβ1-4GlcNAc;” for “mU ST3GALI; 2.5 mM T-antigen;”, “to 101° C.” for “to 101′C”, “product is” for “product was”, “resolved with” for “resolved by”
Effects of the present compounds on the activity of sialyltransferase, including α2,3(N)-sialyltransferase ST3GALIII, α2,6(N)-sialyltransferases ST6GALI, and α2,3(O)-sialyltransferase ST3GALI, were determined in accordance with procedures described in the “Materials and Methods” section, and results are summarized in Table 1.

[2] = tested on: MDA-MB-231 breast cancer; assay: Nude mice model of human MDA-MB-231 breast cancer; assay type: in vivo
Protocol: BALB/c mice (4-5 weeks old) were subcutaneously injected with 1×10^6 MDA-MB-231 cells to the mammary fat pad on day 0. Tumors were allowed to grow in the mice until the size of the tumor reached 100 mm^3, and then the animals were randomly assigned to 3 groups (n=6-8 per group): tumor (vehicle) control, 10 mg/kg the present compound (e.g., FCW34 or FCW66) treatment group. The present compound was intraperitoneally (i.p.) injected to test animals every three days. The growth and metastasis of the tumors were observed by IVIS imaging system, and the metastasized tumor tissues were collected on day 60, and measured for the volume (V) using calipers and calculated by the formula V=(L×W^2)/2, where L is the length and W is the width of tumor.
The effects of the sialyltransferase inhibitor in tumor growth and metastasis were investigated in a nude mice model of human MDA-MB-231 breast cancer established in accordance with procedures set forth in the “Materials and Methods” section. The MDA-MB-231/Luc cells (5×10^6 cells) were orthotopically injected into the mammary fat pad of nude mice. Then the mice were given FCW34 and vehicle, respectively, on day 20, and the tumor volume were evaluated by bioluminescence every 3 days using IVIS image analysis.

[3] = tested on: PANC-1 cells; assay: SNA lectin staining of 2,6-sialylation by FACS in PANC-1 cells; assay type: cell-based, human; conditions: PANC-1 cells grown in fructose-containing medium, FIG. 3
From the text: PANC-1 cells were first grown in glucose-containing or fructose-containing medium treated with or without the presence of the test compound (i.e., FCW34 or AL10, which was used as a positive control), then the cells were stained with SNA lectin to measure 2,6-sialylation level by FACS analysis.

[4] = tested on: PANC-1 pancreatic tumor; assay: Inhibition of pancreatic tumor growth in SCID mice; assay type: in vivo
Protocol: SCID mice (6 weeks old) were orthotopically injected with 1×10^5 human pancreatic cells PANC-1 grown in glucose-containing or fructose-containing medium with or without the presence of the present compound (e.g., FCW34, 5 μM) on day 0. The progression of the tumor was followed by bioluminescence IVIS image analysis, and the test animals were then sacrificed by cervical dislocation after 14 weeks, and respective tumors and the liver sections were collected, and analyzed by histochemical staining with SNA lectin to measure 2,6-sialylation levels utilizing FACS analysis.

## C[C@H](CCC(=O)OCCOCCOCCN=[N+]=[N-])C1CC[C@H]2[C@@H]3CC[C@@H]4C[C@H](OC(=O)[C@H](CC(=O)O)Nc5ccc([N+](=O)[O-])c6nonc56)CC[C@]4(C)[C@H]3CC[C@]12C (stereo partly drawn) [Compound 3, (3S)-4-(((3R,5R,8R,9S,10S,13R,14S)-17-((R)-5-(2-(2-(2-azidoethoxy)ethoxy)ethoxy)-5-oxopentan-2-yl)-10,13-dimethylhexadecahydro-1H-cyclopenta[a]phenanthren-3-yl)oxy)-3-((7-nitrobenzo[c][1,2,5]oxadiazol-4-yl)amino)-4-oxobutanoic acid]
[1]; 500 μM
  selectivity ratio ST3GALI/ST3GALIII: >287^d
[1]; 1 mM
  selectivity ratio ST3GALI/ST3GALIII: (<575)^e
[2]; 10 mg/Kg, FIG. 2B
  growth of the cancer cells (tumors harvested on day 60): suppresses the growth
[2]; 10 mg/Kg/mouse/3 days, FIG. 2A
  level of bioluminescence (tumor growth, IVIS): remained at a relatively low level
[2]; treated mice, data not shown
  toxic effects (biochemistry tests of blood and body weight assessment): limited toxic effects
[3]
  level of 2,6-sialylation: greatly reduced
[4]; PANC-1 cells grown in fructose-containing medium
  metastatic lesions in livers (histological analysis): suppressed
[4]; PANC-1 cells pre-treated with FCW34, FIG. 5
  progression of the tumor: halted significantly
[4]; mice bearing pancreatic cancer
  Liver lesions Incidence: 0/3
